Columns and labels:
Assay in all cases: relative viability (nuclei count vs DMSO), 5 days (fraction); higher = more cells survive
[1] = compound: COC1=CC=C(C=C1)CN2C=CC3=C2C=C(C=C3)C(=O)NO + CS(=O)(=O)N1CCN(Cc2cc3nc(-c4cccc5[nH]ncc45)nc(N4CCOCC4)c3s2)CC1 [Pictilisib] (partner 1 µM)
How it was run: (§1)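 Each reported value is a median over duplicate plates. It expresses relative viability: treated-well nuclei count divided by vehicle-well nuclei count. Lung cancer cell lines in 1536-well plates were dosed by pin tool a day after seeding, alone with one drug or with a fixed anchor-drug dose plus five library-drug doses (not always all listed) in √10 steps, and nuclei were counted after 5 days.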

Veliparib + AZD7762 = compound: C[C@]1(c2nc3c(C(N)=O)cccc3[nH]2)CCCN1 [Veliparib] + NC(=O)Nc1cc(-c2cccc(F)c2)sc1C(=O)N[C@H]1CCCNC1 [AZD7762] (partner 0.2 µM)
How it was run: as §1

[2] = compound: COC1=CC=C(C=C1)CN2C=CC3=C2C=C(C=C3)C(=O)NO + CCNC(=O)c1noc(-c2cc(C(C)C)c(O)cc2O)c1-c1ccc(CN2CCOCC2)cc1 [Luminespib] (partner 0.01 µM)
How it was run: as §1

Veliparib + OSI-027 = compound: C[C@]1(c2nc3c(C(N)=O)cccc3[nH]2)CCCN1 [Veliparib] + COc1cccc2cc(-c3nc([C@H]4CC[C@H](C(=O)O)CC4)n4ncnc(N)c34)[nH]c12 [OSI-027] (partner 0.5 µM)
How it was run: as §1

Cell Line	relative viability ([1]; first compound 0.08 µM)	relative viability ([1]; first compound 0.253 µM)	relative viability ([1]; first compound 0.8 µM)	relative viability ([1]; first compound 2.53 µM)	relative viability ([1]; first compound 8 µM)	relative viability (Veliparib + AZD7762; first compound 0.02 µM)	relative viability (Veliparib + AZD7762; first compound 0.06325 µM)	relative viability (Veliparib + AZD7762; first compound 0.2 µM)	relative viability (Veliparib + AZD7762; first compound 0.6325 µM)	relative viability (Veliparib + AZD7762; first compound 2 µM)	relative viability ([2]; first compound 0.08 µM)	relative viability ([2]; first compound 0.253 µM)	relative viability ([2]; first compound 0.8 µM)	relative viability ([2]; first compound 2.53 µM)	relative viability ([2]; first compound 8 µM)	relative viability (Veliparib + OSI-027; first compound 0.02 µM)	relative viability (Veliparib + OSI-027; first compound 0.2 µM)	relative viability (Veliparib + OSI-027; first compound 0.6325 µM)	relative viability (Veliparib + OSI-027; first compound 2 µM)	relative viability (Veliparib + OSI-027; first compound 0.06325 µM)
HCC-44	0.547	0.746	0.616	0.568	0.547	1.04	0.913	0.936	0.934	1.07	0.908	1.05	1.01	0.936	0.837	0.556	0.478	0.682	0.479	–
HCC-827	0.934	0.921	1.07	1.15	0.927	0.26	0.335	0.2	0.236	0.222	0.537	0.58	0.461	0.51	0.652	0.763	0.722	0.552	0.786	0.843
HOP-62	0.249	0.885	0.988	0.908	0.396	0.567	0.65	0.621	0.463	0.598	0.756	0.876	0.939	0.951	0.94	0.756	0.798	0.792	0.761	0.734
LC-2-ad	0.437	0.597	0.547	0.439	0.427	0.606	0.822	0.865	0.876	0.801	0.993	0.82	0.992	1.06	0.791	–	0.781	0.792	0.87	0.758
LCLC-97TM1	–	0.283	0.205	0.227	0.123	0.164	0.264	0.191	0.274	0.31	0.412	0.797	0.801	0.803	0.724	0.51	0.505	0.433	0.587	0.5
LCLC-103H	0.526	0.621	0.586	0.648	0.532	0.794	0.73	0.702	0.75	0.687	0.938	0.99	0.948	1.03	0.883	0.464	0.462	0.466	0.5	0.434
LK-2	–	0.524	0.598	0.507	0.488	0.32	0.367	0.461	0.465	0.492	–	0.21	0.168	0.194	0.157	0.164	0.229	0.263	0.206	0.204
LOU-NH91	0.45	0.53	0.522	0.528	0.497	0.768	0.705	0.75	0.723	0.821	0.316	0.345	0.322	0.341	0.359	0.716	0.688	0.726	0.74	0.669
LU99A	–	0.338	0.355	0.295	0.283	0.403	0.385	0.322	0.283	0.317	–	0.227	0.288	0.29	0.277	0.297	0.27	0.266	0.323	0.303
LXF-289	0.309	0.779	0.754	0.799	0.723	1.06	1.06	1.12	1.09	1.14	–	0.732	0.709	0.714	0.632	0.836	0.799	0.711	0.759	0.781
NCI-H23	0.275	0.538	0.49	0.559	0.349	0.35	0.216	0.201	0.277	0.28	–	–	0.226	0.221	0.204	0.652	0.587	0.518	0.737	0.393
NCI-H322M	–	0.542	0.544	0.501	0.45	–	0.629	0.573	0.744	0.611	–	0.867	0.909	0.841	0.664	–	0.526	0.557	0.482	0.48
NCI-H358	–	0.429	0.422	0.337	0.296	–	0.487	0.671	0.552	0.676	0.25	0.428	0.374	0.434	0.213	0.496	0.796	0.611	0.698	0.715
NCI-H441	0.344	0.613	0.548	0.572	0.438	1.12	1.09	1.14	1.01	1.04	0.27	0.322	0.37	0.422	0.322	0.622	0.553	0.585	0.617	0.539
NCI-H460	0.0712	0.248	0.405	0.377	0.348	0.635	0.469	0.602	0.583	0.516	0.0291	0.0369	0.0487	0.0276	0.0281	0.677	0.621	0.583	0.632	0.63
NCI-H596	0.349	0.408	0.411	0.468	0.409	1.34	1.22	1.17	1.13	0.952	0.934	0.955	0.972	1.01	0.863	0.805	0.779	0.783	0.68	0.696
NCI-H647	–	0.42	0.523	0.373	0.308	0.53	0.415	0.429	0.552	0.394	0.23	0.216	0.226	0.185	0.111	0.662	0.618	0.605	0.648	0.479
NCI-H650	0.901	0.895	0.856	0.861	0.829	1.07	0.798	1.14	0.96	0.944	0.816	0.758	0.774	0.745	0.574	0.436	0.543	0.48	0.55	0.415
NCI-H727	0.344	0.299	0.553	0.306	0.488	0.627	0.495	0.784	0.681	0.603	0.345	0.406	0.311	0.436	0.323	0.527	0.648	0.494	0.537	0.439
NCI-H838	–	0.464	0.512	0.413	0.399	0.998	0.914	0.963	0.94	0.937	–	0.315	0.364	0.354	0.381	0.419	0.409	0.296	0.372	0.328
NCI-H1355	0.156	0.501	0.489	0.498	0.372	0.733	0.685	0.726	0.684	0.739	–	0.834	0.776	0.7	0.522	–	0.448	0.357	0.355	0.323
NCI-H1395	0.683	0.653	0.58	0.583	0.505	0.454	0.359	0.411	0.405	0.405	0.662	0.659	0.628	0.708	0.604	0.494	0.548	0.579	0.523	0.576
NCI-H1437	0.47	0.449	0.473	0.481	0.412	0.996	1.07	1.17	1.13	1.09	1	1.13	1.09	1.18	1.13	0.694	0.878	0.759	0.844	0.959
NCI-H1651	0.572	0.427	0.606	0.65	0.452	0.455	0.424	0.419	0.46	0.412	0.927	0.885	1.02	0.816	0.655	0.699	0.619	0.659	0.697	0.626
NCI-H1666	0.523	0.49	0.47	0.525	0.525	0.872	0.823	0.799	0.918	0.881	0.911	1.07	1.01	0.987	1.15	0.938	0.763	0.806	0.848	0.791
NCI-H1734	–	0.487	0.437	0.384	0.416	–	0.529	0.529	0.536	0.642	–	0.219	0.218	0.181	0.184	0.44	0.57	0.585	0.67	0.575
NCI-H1755	0.267	0.458	0.51	0.383	0.363	0.479	0.543	0.5	0.443	0.444	0.398	0.312	0.499	0.508	0.356	0.767	0.683	0.586	0.645	0.713
NCI-H1792	0.301	0.314	0.297	0.326	0.209	0.479	0.485	0.548	0.569	0.533	0.37	0.638	0.529	0.35	0.414	0.738	0.73	0.707	0.664	0.708

From the supplement of paper PMC10307832
